In the CheMixHub viscosity set:

Tests used:
[1] = xn = mol fraction of the nth substance listed
[2] = 298.15 K; 101 kPa

O=C(O)CCl + CC(C)=O
viscosity [mPa·s], [1], 101 kPa
Conditions | x1 = 0.1359 | x1 = 0.1855 | x1 = 0.2889 | x1 = 0.3789 | x1 = 0.4791 | x1 = 0.6971 | x1 = 0.8145
298.15 K | 0.4351 | 0.5339 | 0.7329 | 0.9727 | 1.345 | – | –
308.15 K | 0.394 | 0.4777 | 0.6435 | 0.8439 | 1.131 | 2.166 | –
323.15 K | 0.3409 | 0.4134 | 0.5393 | 0.6876 | 0.9042 | 1.6 | 2.123

O=CC(Cl)(Cl)Cl + CC(C)=O
viscosity [mPa·s], [1], 101 kPa
Conditions | x1 = 0.0713 | x1 = 0.1371 | x1 = 0.2697 | x1 = 0.3708 | x1 = 0.4723 | x1 = 0.5664 | x1 = 0.6561 | x1 = 0.7731 | x1 = 0.8964
298.15 K | 0.4048 | 0.4541 | 0.5494 | 0.6015 | 0.6699 | 0.7342 | 0.7924 | 0.8894 | 0.9679
308.15 K | 0.3678 | 0.4111 | – | 0.5376 | 0.5949 | 0.6484 | 0.7021 | 0.7778 | 0.8506
323.15 K | 0.3231 | 0.3615 | 0.4176 | 0.4606 | 0.5118 | 0.554 | 0.6001 | 0.6568 | 0.7107

ClC(Cl)Cl + CCCCO
viscosity [mPa·s], [1], 303.15 K
Conditions | 101 kPa | 101.3 kPa
x2 = 0.0563 | 0.5315 | 0.5315
x2 = 0.0995 | 0.5491 | 0.5491
x2 = 0.1395 | 0.5709 | 0.5709
x2 = 0.1858 | 0.6001 | 0.6001
x2 = 0.2305 | 0.6329 | 0.6329
x2 = 0.2878 | 0.6839 | 0.6839
x2 = 0.301 | 0.6958 | 0.6958
x2 = 0.3666 | 0.7663 | 0.7663
x2 = 0.4891 | 0.9373 | 0.9373
x2 = 0.5662 | 1.076 | 1.076
x2 = 0.6718 | 1.314 | 1.314
x2 = 0.7659 | 1.574 | 1.574
x2 = 0.8333 | 1.78 | 1.78
x2 = 0.9386 | 2.107 | 2.107

O=CC(Cl)(Cl)Cl + CO
[1], 313.15 K, 101 kPa
Conditions | viscosity [mPa·s]
x1 = 0.0365 | 0.5111
x1 = 0.1162 | 0.9078
x1 = 0.2408 | 2.096
x1 = 0.3032 | 2.491
x1 = 0.4207 | 6.085
x1 = 0.444 | 6.591
x1 = 0.4731 | 7.389
x1 = 0.5032 | 7.028
x1 = 0.5958 | 3.182
x1 = 0.7159 | 1.792
x1 = 0.8416 | 1.198
x1 = 0.9603 | 0.8738

CCCC[N+]1(C)CCCCC1.O=S(=O)([N-]S(=O)(=O)C(F)(F)F)C(F)(F)F
Conditions | viscosity [mPa·s]
[2] | 178.5

CC(=O)OCc1ccccc1 + Cc1cccc(C)c1
viscosity [mPa·s], [1], 101 kPa
Conditions | x1 = 0.0925 | x1 = 0.1766 | x1 = 0.2746 | x1 = 0.3691 | x1 = 0.4674 | x1 = 0.5665 | x1 = 0.6703 | x1 = 0.7681 | x1 = 0.8773 | x1 = 0.9356
303.15 K | 0.593 | 0.638 | 0.712 | 0.79 | 0.884 | 0.996 | 1.125 | 1.257 | 1.436 | 1.535
313.15 K | 0.528 | 0.576 | 0.634 | 0.679 | 0.751 | 0.837 | 0.942 | 1.05 | 1.177 | 1.245

O=C(O)CCl + Oc1ccccc1
[1], 323.15 K, 101 kPa
Conditions | viscosity [mPa·s]
x2 = 0.1128 | 3.125
x2 = 0.1918 | 3.113
x2 = 0.26 | 3.103
x2 = 0.3059 | 3.112
x2 = 0.405 | 3.121
x2 = 0.5113 | 3.142
x2 = 0.606 | 3.203
x2 = 0.6735 | 3.242
x2 = 0.7037 | 3.277
x2 = 0.7567 | 3.308
x2 = 0.8216 | 3.338
x2 = 0.903 | 3.353

O=CC(Cl)(Cl)Cl + CC(C)CCO
[1], 313.15 K, 101 kPa
Conditions | viscosity [mPa·s]
x1 = 0.0715 | 2.825
x1 = 0.2226 | 4.098
x1 = 0.2851 | 4.684
x1 = 0.3509 | 5.476
x1 = 0.4001 | 6.07
x1 = 0.4335 | 6.48
x1 = 0.4573 | 6.923
x1 = 0.4722 | 6.922
x1 = 0.4823 | 6.831
x1 = 0.4926 | 6.751
x1 = 0.5251 | 6.026
x1 = 0.5576 | 5.406
x1 = 0.6165 | 3.935
x1 = 0.7376 | 2.151
x1 = 0.8868 | 1.283
